In PMC10174255, “Drug repurposing approach against chikungunya virus: an in vitro and in silico study” (Frontiers in Cellular and Infection Microbiology, 2023):

Key:
CHIKV [1] = assay: Western blot of viral capsid (C) protein; type: cell-based, Chikungunya virus; conditions: posttreatment, maximal non-toxic concentration, normalized to β-actin
Protocol: To investigate the expression of viral proteins, a western blotting assay was performed. […] The cell cultures were subjected to different types of treatment with various concentrations of the appropriate drugs. Cells were lysed using the RIPA buffer and 2X laemmli buffer at 1:1 ratio. The cell culture lysates from uninfected, infected without treatment and infected treated cells were subjected to an electrophoretic run on 10% discontinuous SDS polyacrylamide gels followed by electroblotting onto nitrocellulose membranes. The membranes were then blocked for 30 minutes using phosphate-buffered saline (PBS) containing 5% bovine serum albumin. […] This monoclonal antibody is known to react with the capsid protein of CHIKV and was characterized and purified as described earlier ([Damle et al., 2016]). The membranes were thoroughly rinsed with tris-buffered saline with 0.1% Tween 20 (TBST) after overnight incubation (5 washes totaling a 20-minute soak with rocking), and then they were incubated with the appropriate horseradish peroxidase (HRP) conjugated anti-mouse IgG antibody for two hours while rocking. For developing the blot, ECL substrate (Thermo Scientific) was used in the dark. The image of the blot was captured using the Gel Documentation system (BioRad™, USA), and analysis was done. To quantify the protein signals (density) of the viral protein and housekeeping protein in each lane, ImageJ software was used. After calculating the signal values for each band, the background signals were subtracted from the signal. The relative level of viral protein was normalized to beta-actin (monoclonal antibody 15G5A11/E2, catalog no:MA1-140, Invitrogen, USA). Signal densities were determined using ImageJ software and were plotted using GraphPad Prism software version 7.

MTT cytotoxicity assay = conditions: African green monkey
Vero CCL-81 cells = assay: MTT cytotoxicity assay; conditions: for The maximum nontoxic concentration used for primary screening of drugs against CHIKV: Vero CCL-81, ≥90% cell viability
CHIKV [2] = assay: Viral RNA copy number by quantitative RT-PCR
CHIKV [3] = assay: Immunofluorescence assay (percent infected cells); conditions: posttreatment, IFA, compared to VC
CHIKV [4] = assay: Antiviral assay (pre-, co-, posttreatment) with FFU readout; conditions: for anti chikungunya activity: Vero CCL-81, any treatment condition; for IC50 / anti-CHIKV activity in primary screening: FFU; for IC50: Vero CCL-81; for anti-CHIKV activity in primary screening: highest nontoxic concentration
CHIKV [5] = assay: Time-of-addition assay (extra- and intracellular virus, FFU)
[6] = posttreatment, 6.25 µM, VC 8.870
[7] = posttreatment, 12.5 µM, VC 8.870

Nc1nc(F)nc2nc[nH]c12 [2-Fluoroadenine]
viral antigen (C protein) expression (CHIKV [1]): significant reduction
CC50 (MTT cytotoxicity assay): 437 ± 320 µM
The maximum nontoxic concentration used for primary screening of drugs against CHIKV (Vero CCL-81 cells): 100 µM
effect on viral RNA copy number (CHIKV [2]; pretreatment, 100 µM): significant reduction
reduction in percentage of infected cells (CHIKV [3]): prominently observed
anti chikungunya activity (CHIKV [4]): exhibit anti chikungunya activity
mean log10 viral titer/ml (CHIKV [4]; posttreatment, 50 µM, VC 8.870): 7.686 log10 FFU/ml
IC50 (CHIKV [4]; posttreatment): 7.59 µM
anti-CHIKV activity in primary screening (CHIKV [4]; posttreatment): effective
Selectivity Index (SI) (CHIKV [4]; pretreatment): 45.56
mean log10 viral titer/ml (CHIKV [4]; pretreatment, 50 µM, VC 8.665): 7.284 log10 FFU/ml
mean log10 viral titer/ml (CHIKV [4]; pretreatment, 100 µM, VC 8.665): 7.185 log10 FFU/ml
IC50 (CHIKV [4]; pretreatment): 9.59 µM
anti-CHIKV activity in primary screening (CHIKV [4]; pretreatment): effective
reduction in intra- and extracellular virus titer (CHIKV [5]; 100 µM, time of addition 0, 3, 6 h): ~ 1 log10
reduction in intra- and extracellular virus titers (CHIKV [5]; 25 and 50 µM): Mild reduction
effectiveness at time points of addition (CHIKV [5]; added 0, 3 and 6 h post infection): effective at all three time points

CC(C)Cn1c(=O)n(C)c(=O)c2[nH]cnc21 [3-isobutyl 1-methylxanthine]
CC50 (MTT cytotoxicity assay): 177 ± 21.7 µM
The maximum nontoxic concentration used for primary screening of drugs against CHIKV (Vero CCL-81 cells): 50 µM

C[C@@]12CCC[C@H]1[C@@H]1CC[C@H]3C[C@@H](O)CC[C@]3(C)[C@H]1CC2 [5-α-3-β-androstanol]
The maximum nontoxic concentration used for primary screening of drugs against CHIKV (Vero CCL-81 cells): 12.5 µM
CC50 (Vero CCL-81 cells; read-out: CC50 value ± SE, Vero CCL-81, MTT, 0.78-200 µM): 23.5 ± 0.856 µM

COc1cccc2c1C(=O)c1c(O)c3c(c(O)c1C2=O)C[C@@](O)(C(=O)CO)C[C@@H]3O[C@H]1C[C@H](N)[C@H](O)[C@H](C)O1 [Doxorubicin]
viral antigen (C protein) expression (CHIKV [1]): significant reduction
CC50 (MTT cytotoxicity assay): 117 ± 8.25 µM
The maximum nontoxic concentration used for primary screening of drugs against CHIKV (Vero CCL-81 cells): 25 µM
effect on viral RNA copy number/titre (CHIKV [2]; posttreatment): no decrease
effect on viral RNA copy number/titre (CHIKV [2]; pretreatment): no decrease
reduction in percentage of infected cells (CHIKV [3]): prominently observed
anti chikungunya activity (CHIKV [4]): exhibit anti chikungunya activity
Selectivity Index (SI) (CHIKV [4]; posttreatment): 18.24
mean log10 viral titer/ml (CHIKV [4]; [6]): 7.758 log10 FFU/ml
mean log10 viral titer/ml (CHIKV [4]; [7]): 7.509 log10 FFU/ml
mean log10 viral titer/ml (CHIKV [4]; posttreatment, 25 µM, VC 8.870): 7.376 log10 FFU/ml
IC50 (CHIKV [4]; posttreatment): 6.41 µM
anti-CHIKV activity in primary screening (CHIKV [4]; posttreatment): effective
Selectivity Index (SI) (CHIKV [4]; pretreatment): 16.95
mean log10 viral titer/ml (CHIKV [4]; pretreatment, 12.5 µM, VC 8.665): 7.460 log10 FFU/ml
mean log10 viral titer/ml (CHIKV [4]; pretreatment, 25 µM, VC 8.665): 7.333 log10 FFU/ml
IC50 (CHIKV [4]; pretreatment): 6.9 µM
anti-CHIKV activity in primary screening (CHIKV [4]; pretreatment): effective
effect on intra- and extracellular virus particles (CHIKV [5]; 25 µM, added at 0, 3 and 6 h): exerted reduction
reduction in intracellular virus titer (CHIKV [5]; 12.5 and 6.25 µM): not as prominent as extracellular virus titer

COc1cc2c(cc1Cc1cccc(Cl)c1F)c(=O)c(C(=O)O)cn2[C@H](CO)C(C)C [Elvitegravir]
CC50 (MTT cytotoxicity assay): 12.7 ± 1.52 µM
The maximum nontoxic concentration used for primary screening of drugs against CHIKV (Vero CCL-81 cells): 6.25 µM

CC[C@H]1CN2CCc3cc(OC)c(OC)cc3[C@@H]2C[C@@H]1C[C@H]1NCCc2cc(OC)c(OC)cc21 [Emetine]
CC50 (MTT cytotoxicity assay): > 200 µM
The maximum nontoxic concentration used for primary screening of drugs against CHIKV (Vero CCL-81 cells): 200 µM
effect on viral RNA copy number/titre (CHIKV [2]; posttreatment): No significant reduction
anti chikungunya activity (CHIKV [4]): exhibit anti chikungunya activity
mean log10 viral titer/ml (CHIKV [4]; posttreatment, 50 µM, VC 8.870): 7.802 log10 FFU/ml
mean log10 viral titer/ml (CHIKV [4]; posttreatment, 100 µM, VC 8.870): 7.550 log10 FFU/ml
mean log10 viral titer/ml (CHIKV [4]; posttreatment, 200 µM, VC 8.870): 7.306 log10 FFU/ml
IC50 (CHIKV [4]; posttreatment): 4.24 µM
anti-CHIKV activity in primary screening (CHIKV [4]; posttreatment): effective
effect on intra- and extracellular virus titre (CHIKV [5]; 200 µM, added at 6 h): significant reduction
effect on intra- and extracellular virus titer (CHIKV [5]; 50-200 µM, added at 0 and 3 h): significantly reduced

O=C(O)Cc1ccc(-c2ccccc2)cc1 [Felbinac]
CC50 (MTT cytotoxicity assay): 525 ± 200 µM
The maximum nontoxic concentration used for primary screening of drugs against CHIKV (Vero CCL-81 cells): 3.125 µM
effect on viral RNA copy number/titre (CHIKV [2]; pretreatment): did not have any effect
anti chikungunya activity (CHIKV [4]): exhibit anti chikungunya activity
Selectivity Index (SI) (CHIKV [4]; pretreatment): 2205.88
mean log10 viral titer/ml (CHIKV [4]; pretreatment, 1.56 µM, VC 8.665): 7.175 log10 FFU/ml
mean log10 viral titer/ml (CHIKV [4]; pretreatment, 3.125 µM, VC 8.665): 7.040 log10 FFU/ml
IC50 (CHIKV [4]; pretreatment): 0.238 µM
anti-CHIKV activity in primary screening (CHIKV [4]; pretreatment): effective

Nc1cccc2c1CN(C1CCC(=O)NC1=O)C2=O (stereo not shown) [Lenalidomide]
The maximum nontoxic concentration used for primary screening of drugs against CHIKV (Vero CCL-81 cells): 200 µM

CC(C)(C)C#Cc1cc(N(C(=O)[C@H]2CC[C@H](C)CC2)[C@H]2CC[C@H](O)CC2)c(C(=O)O)s1 [Lomibuvir]
CC50 (MTT cytotoxicity assay): 31.5 ± 9.63 µM
The maximum nontoxic concentration used for primary screening of drugs against CHIKV (Vero CCL-81 cells): 6.25 µM
effect on viral RNA copy number/titre (CHIKV [2]; posttreatment): no change observed
anti chikungunya activity (CHIKV [4]): exhibit anti chikungunya activity
Selectivity Index (SI) (CHIKV [4]; posttreatment): 19.83
mean log10 viral titer/ml (CHIKV [4]; [6]): 7.655 log10 FFU/ml
IC50 (CHIKV [4]; posttreatment): 1.59 µM
anti-CHIKV activity in primary screening (CHIKV [4]; posttreatment): effective
effect on virus titer (CHIKV [5]; 3.125 µM, added at 3 and 6 h): small but significant reduction
effect on intra- and extracellular virus titer (CHIKV [5]; 6.25 µM, added at 0, 3 and 6 h): significantly reduced

Cc1ccc(NC(=O)c2ccc(CN3CCN(C)CC3)cc2)cc1Nc1nc(-c2cccnc2)cs1 [Masitinib]
cytotoxicity (Vero CCL-81 cells; Vero CCL-81, even at lowest concentrations): highly toxic

CC(C)(C(=O)c1cccnc1)c1cccnc1 [Metyrapone]
CC50 (MTT cytotoxicity assay): 5600 ± 6100 µM
The maximum nontoxic concentration used for primary screening of drugs against CHIKV (Vero CCL-81 cells): 200 µM
log10 viral RNA copy number (CHIKV [2]; pretreatment, 200 µM, VC 9.670): 8.984
anti chikungunya activity (CHIKV [4]): exhibit anti chikungunya activity
Selectivity Index (SI) (CHIKV [4]; pretreatment): 457.80
mean log10 viral titer/ml (CHIKV [4]; pretreatment, 100 µM, VC 8.665): 7.136 log10 FFU/ml
mean log10 viral titer/ml (CHIKV [4]; pretreatment, 200 µM, VC 8.665): 7.115 log10 FFU/ml
IC50 (CHIKV [4]; pretreatment): 12.2 µM
anti-CHIKV activity in primary screening (CHIKV [4]; pretreatment): effective

Cc1nc2c(O)cccc2c(=O)[nH]1 [NU-1025]
The maximum nontoxic concentration used for primary screening of drugs against CHIKV (Vero CCL-81 cells): 100 µM

Oc1ccc(/C=C/c2cc(O)cc(O)c2)cc1 [Resveratrol]
CC50 (MTT cytotoxicity assay): 40.9 ± 4.57 µM
The maximum nontoxic concentration used for primary screening of drugs against CHIKV (Vero CCL-81 cells): 12.5 µM
effect on viral RNA copy number/titre (CHIKV [2]; posttreatment): No reduction
reduction in percentage of infected cells (CHIKV [3]): prominently observed
anti chikungunya activity (CHIKV [4]): exhibit anti chikungunya activity
Selectivity Index (SI) (CHIKV [4]; posttreatment): 23.74
mean log10 viral titer/ml (CHIKV [4]; [6]): 8.261 log10 FFU/ml
mean log10 viral titer/ml (CHIKV [4]; [7]): 7.486 log10 FFU/ml
IC50 (CHIKV [4]; posttreatment): 1.72 µM
anti-CHIKV activity in primary screening (CHIKV [4]; posttreatment): effective
effect on extracellular titer of virus (CHIKV [5]; 6.25 µM, added at 3 and 6 h): mild but significant reduction
effect on intra- and extracellular virus titer (CHIKV [5]; 12.5 µM, added at 0, 3 and 6 h): significant decrease
